Laboratory results reported in US10499642B2, “Isoxazoline-substituted benzamides and analogues as insecticides” (SYNGENTA PARTICIPATIONS AG, priority 2015, dated 2019).

Key:
Type in all cases: in vivo
Spodoptera littoralis = Spodoptera littoralis (Egyptian cotton leaf worm) cotton leaf disc test; settings: foliar, 72 h, read-out: control (at least one of mortality, anti-feedant effect, and growth inhibition)
Experimental: Spodoptera littoralis (Egyptian Cotton Leaf Worm)
Cotton leaf discs were placed on agar in 24-well microtiter plates and sprayed with aqueous test solutions prepared from 10′000 ppm DMSO stock solutions. After drying the leaf discs were infested with five L1 larvae. The samples were assessed for mortality, anti-feedant effect, and growth inhibition in comparison to untreated samples 3 days after infestation. Control of Spodoptera littoralis by a test sample is when at least one of mortality, anti-feedant effect, and growth inhibition is higher than the untreated sample.

Plutella xylostella = Plutella xylostella (diamond back moth) artificial diet test; settings: 120 h, read-out: effect in at least one of the two categories (mortality or growth inhibition)
Experimental: Plutella xylostella (Diamond Back Moth):
24-well microtiter plates with artificial diet were treated with aqueous test solutions prepared from 10′000 ppm DMSO stock solutions by pipetting. After drying, the plates were infested with L2 larvae (10 to 15 per well). The samples were assessed for mortality and growth inhibition in comparison to untreated samples 5 days after infestation. The following compounds gave an effect of at least 80% in at least one of the two categories (mortality or growth inhibition) at an application rate of 200 ppm: […]

Diabrotica Balteata = assay: Diabrotica balteata (corn root worm) maize sprout test; settings: 96 h, read-out: effect in at least one of the two categories (mortality or growth inhibition)
Experimental: Diabrotica Balteata, (Corn Root Worm)
Maize sprouts, placed on an agar layer in 24-well microtiter plates were treated with aqueous test solutions prepared from 10′000 ppm DMSO stock solutions by spraying. After drying, the plates were infested with L2 larvae (6 to 10 per well). The samples were assessed for mortality and growth inhibition in comparison to untreated samples 4 days after infestation. The following compounds gave an effect of at least 80% in at least one of the two categories (mortality or growth inhibition) at an application rate of 200 ppm: […]

Thrips tabaci = Thrips tabaci (onion thrips) sunflower leaf disc test; settings: foliar, 144 h
Experimental: Thrips tabaci (Onion Thrips):
Sunflower leaf discs were placed on agar in 24-well microtiter plates and sprayed with aqueous test solutions prepared from 10′000 ppm DMSO stock solutions. After drying the leaf discs were infested with a thrips population of mixed ages. The samples were assessed for mortality 6 days after infestation.

Tetranychus urticae = Tetranychus urticae (two-spotted spider mite) bean leaf disc test; settings: foliar, 192 h
Experimental: Tetranychus urticae (Two-Spotted Spider Mite):
Bean leaf discs on agar in 24-well microtiter plates were sprayed with aqueous test solutions prepared from 10′000 ppm DMSO stock solutions. After drying the leaf discs were infested with a mite population of mixed ages. The samples were assessed for mortality on mixed population (mobile stages) 8 days after infestation.

Myzus persicae = Myzus persicae (green peach aphid) sunflower leaf disc test; settings: foliar, 144 h
Experimental: Myzus persicae (Green Peach Aphid):
Sunflower leaf discs were placed on agar in a 24-well microtiter plate and sprayed with test solutions at an application rate of 200 ppm. After drying, the leaf discs were infested with an aphid population of mixed ages. After an incubation period of 6 days after treatment, samples were checked for mortality. The following compounds gave at least 80% mortality of Myzus persicae: […]

CCOC1=NOC(NC(=O)c2ccc(C3=NO[C@@](c4cc(Cl)c(Cl)c(Cl)c4)(C(F)(F)F)C3)cc2Cl)C1 (stereo partly drawn) [Compound A060, 2-chloro-N-(3-ethoxy-4,5-dihydroisoxazol-5-yl)-4-[(5S)-5-(3,4,5-trichlorophenyl)-5-(trifluoromethyl)-4H-isoxazol-3-yl]benzamide]
≥ 80%: percent control (mortality, anti-feedant effect or growth inhibition) at 200 ppm (Spodoptera littoralis) | percent effect (mortality or growth inhibition) at 200 ppm (Plutella xylostella) | percent effect (mortality or growth inhibition) at 200 ppm (Diabrotica Balteata) | mortality at 200 ppm (Thrips tabaci) | mortality at 200 ppm (Tetranychus urticae) | mortality at 200 ppm (Myzus persicae)

Cc1cc(C2=NO[C@@](c3cc(Cl)c(F)c(Cl)c3)(C(F)(F)F)C2)ccc1C(=O)NC1CC(OC2CCC2)=NO1 (stereo partly shown) [Compound A079]
≥ 80%: percent control (mortality, anti-feedant effect or growth inhibition) at 200 ppm (Spodoptera littoralis) | percent effect (mortality or growth inhibition) at 200 ppm (Plutella xylostella) | percent effect (mortality or growth inhibition) at 200 ppm (Diabrotica Balteata) | mortality at 200 ppm (Thrips tabaci) | mortality at 200 ppm (Tetranychus urticae) | mortality at 200 ppm (Myzus persicae)

CC(=O)COC1=NOC(NC(=O)c2ccc(C3=NO[C@@](c4cc(Cl)c(Cl)c(Cl)c4)(C(F)(F)F)C3)cc2C)C1 (stereo partly drawn) [Compound A121, N-(3-acetonyloxy-4,5-dihydroisoxazol-5-yl)-2-methyl-4-[(5S)-5-(3,4,5-trichlorophenyl)-5-(trifluoromethyl)-4H-isoxazol-3-yl]benzamide]
≥ 80%: percent control (mortality, anti-feedant effect or growth inhibition) at 200 ppm (Spodoptera littoralis) | percent effect (mortality or growth inhibition) at 200 ppm (Plutella xylostella) | percent effect (mortality or growth inhibition) at 200 ppm (Diabrotica Balteata) | mortality at 200 ppm (Thrips tabaci) | mortality at 200 ppm (Tetranychus urticae) | mortality at 200 ppm (Myzus persicae)

CCOC1=NOC(NC(=O)c2ccc(C3=NO[C@@](c4cc(Cl)c(Cl)c(Cl)c4)(C(F)(F)F)C3)cc2C)C1 (stereo partly shown) [Compound A059]
≥ 80%: percent control (mortality, anti-feedant effect or growth inhibition) at 200 ppm (Spodoptera littoralis) | percent effect (mortality or growth inhibition) at 200 ppm (Plutella xylostella) | percent effect (mortality or growth inhibition) at 200 ppm (Diabrotica Balteata) | mortality at 200 ppm (Thrips tabaci) | mortality at 200 ppm (Tetranychus urticae) | mortality at 200 ppm (Myzus persicae)

Cc1cc(C2=NO[C@@](c3cc(Cl)cc(Cl)c3)(C(F)(F)F)C2)ccc1C(=O)N[C@H]1CC(C(F)(F)F)=NO1 (single isomer, unassigned) [Compound A155]
≥ 80%: percent control (mortality, anti-feedant effect or growth inhibition) at 200 ppm (Spodoptera littoralis) | percent effect (mortality or growth inhibition) at 200 ppm (Plutella xylostella) | percent effect (mortality or growth inhibition) at 200 ppm (Diabrotica Balteata) | mortality at 200 ppm (Thrips tabaci) | mortality at 200 ppm (Tetranychus urticae) | mortality at 200 ppm (Myzus persicae)

COC1=NOC(NC(=O)c2ccc(C3=NO[C@@](c4cc(Cl)cc(C(F)(F)F)c4)(C(F)(F)F)C3)cc2Cl)C1 (stereo partly shown) [Compound A065]
≥ 80%: percent control (mortality, anti-feedant effect or growth inhibition) at 200 ppm (Spodoptera littoralis) | percent effect (mortality or growth inhibition) at 200 ppm (Plutella xylostella) | percent effect (mortality or growth inhibition) at 200 ppm (Diabrotica Balteata) | mortality at 200 ppm (Thrips tabaci) | mortality at 200 ppm (Tetranychus urticae) | mortality at 200 ppm (Myzus persicae)

Cc1cc(C2=NO[C@@](c3cc(Cl)c(F)c(Cl)c3)(C(F)(F)F)C2)ccc1C(=O)NC1CC(Cl)=NO1 (stereo partly drawn) [Compound A003, N-(3-chloro-4,5-dihydroisoxazol-5-yl)-4-[(5S)-5-(3,5-dichloro-4-fluoro-phenyl)-5-(trifluoromethyl)-4H-isoxazol-3-yl]-2-methyl-benzamide]
≥ 80%: percent control (mortality, anti-feedant effect or growth inhibition) at 200 ppm (Spodoptera littoralis) | percent effect (mortality or growth inhibition) at 200 ppm (Plutella xylostella) | percent effect (mortality or growth inhibition) at 200 ppm (Diabrotica Balteata) | mortality at 200 ppm (Thrips tabaci) | mortality at 200 ppm (Tetranychus urticae) | mortality at 200 ppm (Myzus persicae)

CC(C)=CCOC1=NOC(NC(=O)c2ccc(C3=NO[C@@](c4cc(Cl)c(F)c(Cl)c4)(C(F)(F)F)C3)cc2C)C1 (stereo partly shown) [Compound A085]
≥ 80%: percent control (mortality, anti-feedant effect or growth inhibition) at 200 ppm (Spodoptera littoralis) | percent effect (mortality or growth inhibition) at 200 ppm (Plutella xylostella) | percent effect (mortality or growth inhibition) at 200 ppm (Diabrotica Balteata) | mortality at 200 ppm (Thrips tabaci) | mortality at 200 ppm (Tetranychus urticae) | mortality at 200 ppm (Myzus persicae)

Cc1cc(C2=NO[C@@](c3cc(Cl)cc(C(F)(F)F)c3)(C(F)(F)F)C2)ccc1C(=O)N(C=O)C1CC(Cl)=NO1 (stereo partly drawn) [Compound A012, N-(3-chloro-4,5-dihydroisoxazol-5-yl)-4-[(5S)-5-[3-chloro-5-(trifluoromethyl)phenyl]-5-(trifluoromethyl)-4H-isoxazol-3-yl]-N-formyl-2-methyl-benzamide]
≥ 80%: percent control (mortality, anti-feedant effect or growth inhibition) at 200 ppm (Spodoptera littoralis) | percent effect (mortality or growth inhibition) at 200 ppm (Plutella xylostella) | percent effect (mortality or growth inhibition) at 200 ppm (Diabrotica Balteata) | mortality at 200 ppm (Thrips tabaci) | mortality at 200 ppm (Tetranychus urticae) | mortality at 200 ppm (Myzus persicae)

Cc1cc(C2=NO[C@@](c3cc(Cl)c(Cl)c(Cl)c3)(C(F)(F)F)C2)ccc1C(=O)NC1CC(OCC(=O)N(C)C)=NO1 (stereo partly drawn) [Compound A114, N-[3-[2-(dimethylamino)-2-oxo-ethoxy]-4,5-dihydroisoxazol-5-yl]-2-methyl-4-[(5S)-5-(3,4,5-trichlorophenyl)-5-(trifluoromethyl)-4H-isoxazol-3-yl]benzamide]
≥ 80%: percent control (mortality, anti-feedant effect or growth inhibition) at 200 ppm (Spodoptera littoralis) | percent effect (mortality or growth inhibition) at 200 ppm (Plutella xylostella) | mortality at 200 ppm (Thrips tabaci) | mortality at 200 ppm (Tetranychus urticae) | mortality at 200 ppm (Myzus persicae)

Cc1cc(C2=NO[C@@](c3cc(Cl)cc(Cl)c3)(C(F)(F)F)C2)ccc1C(=O)N[C@H]1CC(OCC(F)(F)F)=NO1 (single isomer, unassigned) [Compound A157]
≥ 80%: percent control (mortality, anti-feedant effect or growth inhibition) at 200 ppm (Spodoptera littoralis) | percent effect (mortality or growth inhibition) at 200 ppm (Plutella xylostella) | percent effect (mortality or growth inhibition) at 200 ppm (Diabrotica Balteata) | mortality at 200 ppm (Thrips tabaci) | mortality at 200 ppm (Tetranychus urticae)

Cc1cc(C2=NO[C@@](c3cc(Cl)c(F)c(Cl)c3)(C(F)(F)F)C2)ccc1C(=O)N(C(=O)OC(C)(C)C)C1CC(Cl)=NO1 (stereo partly drawn) [Compound A067, tert-butyl N-(3-chloro-4,5-dihydroisoxazol-5-yl)-N-[4-[(5S)-5-(3,5-dichloro-4-fluoro-phenyl)-5-(trifluoromethyl)-4H-isoxazol-3-yl]-2-methyl-benzoyl]carbamate]
≥ 80%: percent control (mortality, anti-feedant effect or growth inhibition) at 200 ppm (Spodoptera littoralis) | percent effect (mortality or growth inhibition) at 200 ppm (Plutella xylostella) | percent effect (mortality or growth inhibition) at 200 ppm (Diabrotica Balteata) | mortality at 200 ppm (Thrips tabaci) | mortality at 200 ppm (Tetranychus urticae)

COC1=NO[C@H](N(C(=O)OC(C)(C)C)C(=O)c2ccc(C3=NO[C@@](c4cc(Cl)c(Cl)c(Cl)c4)(C(F)(F)F)C3)cc2C)C1 (single isomer, unassigned) [Compound A152]
≥ 80%: percent control (mortality, anti-feedant effect or growth inhibition) at 200 ppm (Spodoptera littoralis) | percent effect (mortality or growth inhibition) at 200 ppm (Plutella xylostella) | percent effect (mortality or growth inhibition) at 200 ppm (Diabrotica Balteata) | mortality at 200 ppm (Thrips tabaci) | mortality at 200 ppm (Tetranychus urticae)

Cc1cc(C2=NO[C@@](c3cc(Cl)c(F)c(Cl)c3)(C(F)(F)F)C2)ccc1C(=O)NC1CC(C(=O)O)=NO1 (stereo partly shown) [Compound A117]
≥ 80%: percent control (mortality, anti-feedant effect or growth inhibition) at 200 ppm (Spodoptera littoralis) | percent effect (mortality or growth inhibition) at 200 ppm (Plutella xylostella) | percent effect (mortality or growth inhibition) at 200 ppm (Diabrotica Balteata) | mortality at 200 ppm (Thrips tabaci) | mortality at 200 ppm (Tetranychus urticae)
